# Results taken from patent publication US20230086007A1, “USE OF DENATONIUM BENZOATE AS A SEED TREATMENT FOR CROPS AS BIRD AND/OR INSECT REPELLENT” (KWS SAAT SE & Co. KGaA, priority 2020, published 2023).
# Assays:
# corn seeds = test: Phytotoxicity: cold test germination rate (CT) of treated corn seeds; conditions: for ΔCT: vs no Bitrex
# Description: In order to evaluate the phytotoxicity of different corn seed treatments, safety tests were conducted. Germination rates of corn seeds treated with various concentrations of denatonium benzoate (Bitrex®) [in g per unit, where 1 unit is 50.000 seeds] were counted after five days at 25° C. Cold test germination rates (CT) were counted after 7 days at 10° C. and 5 days at 25° C. The treatments were compared to untreated seeds.
# KF=germination rates counted after 5 days at 25° C. and CT=cold test germination rates counted after 7 days at 10° C. and 5 days at 25° C.
# [1] = system: wireworm of genus Agriotes; test: Wireworm repellent pot assay on corn in climate chamber; type: in vivo; conditions: climate chamber 18° C. day/12° C. night; eighteen days after sowing
# Description: The denatonium benzoate (Bitrex) was tested in concentrations of 0.5 g/unit (wherein 1 unit=50.000 seeds), 1 g/unit and 5 g/unit, either without any other plant protection product (variants 3 and 4) or with RedigoM (active ingredients 100 g/l Prothioconazole (PRO) and 20 g/l Metalaxyl (MTL); (variants 6-8). Sticker was always Sepiret 9290 red, whereby 30 ml/unit has been applied. Variant 1 is the negative control wherein no treatment of the seeds took place, variant 2 is another control only treated with the sticker. Variant 5 is RedigoM and sticker without Bitrex. Variants 9 and 10 serve as positive control. Beside RedigoM and the sticker, the seeds have been treated with either with Force 20 CS (active ingredient: tefluthrin (TEF); or with Poncho® 600 (active ingredient: clothianidin (CLO). Both Force 20 CS and Poncho® 600 are standard treatments against wireworm infestation. All testing were conducted on corn variety Amavit of KWS SAAT SE & Co. KGaA.
# Testing has been repeated in climate chambers in order to ensure high humidity and moderate temperatures which results in optimal environmental condition for the wireworm. Thereby, a high level of insect pressure on the seeded corn should be simulated. […]
# Eighteen days after sowing the plant biomass (Table 6) as well as seed damage (FIG. 4B; Table 6) were assessed.
# [2] = corn Amavit, chemical no, Bitrex 0.2 g/u
# [3] = corn Amavit, chemical no, Bitrex 0.5 g/u
# [4] = corn Amavit, chemical no, Bitrex 1.0 g/u
# [5] = corn Amavit, chemical no, Bitrex 2.0 g/u
# [6] = corn Amavit, chemical no, Bitrex 5.0 g/u
# [7] = corn Amavit, with MaximXL, Bitrex 0.2 g/u
# [8] = corn Amavit, with MaximXL, Bitrex 0.5 g/u
# [9] = corn Amavit, with MaximXL, Bitrex 1.0 g/u
# [10] = corn Amavit, with MaximXL, Bitrex 2.0 g/u
# [11] = corn Amavit, with MaximXL, Bitrex 5.0 g/u
# [12] = corn Amavit, with RedigoM, Bitrex 0.2 g/u
# [13] = corn Amavit, with RedigoM, Bitrex 0.5 g/u
# [14] = corn Amavit, with RedigoM, Bitrex 1.0 g/u
# [15] = corn Amavit, with RedigoM, Bitrex 2.0 g/u
# [16] = corn Amavit, with RedigoM, Bitrex 5.0 g/u
# [17] = corn KXB6432, chemical no, Bitrex 0.2 g/u
# [18] = corn KXB6432, chemical no, Bitrex 0.5 g/u
# [19] = corn KXB6432, chemical no, Bitrex 1.0 g/u
# [20] = corn KXB6432, chemical no, Bitrex 2.0 g/u
# [21] = corn KXB6432, chemical no, Bitrex 5.0 g/u
# [22] = corn KXB6432, with MaximXL, Bitrex 0.2 g/u
# [23] = corn KXB6432, with MaximXL, Bitrex 0.5 g/u
# [24] = corn KXB6432, with MaximXL, Bitrex 1.0 g/u
# [25] = corn KXB6432, with MaximXL, Bitrex 2.0 g/u
# [26] = corn KXB6432, with MaximXL, Bitrex 5.0 g/u
# [27] = corn KXB6432, with RedigoM, Bitrex 0.2 g/u
# [28] = corn KXB6432, with RedigoM, Bitrex 0.5 g/u
# [29] = corn KXB6432, with RedigoM, Bitrex 1.0 g/u
# [30] = corn KXB6432, with RedigoM, Bitrex 2.0 g/u
# [31] = corn KXB6432, with RedigoM, Bitrex 5.0 g/u
# [32] = ø of varieties and chemicals, Bitrex 0.2 g/u
# [33] = ø of varieties and chemicals, Bitrex 0.5 g/u
# [34] = ø of varieties and chemicals, Bitrex 1.0 g/u
# [35] = ø of varieties and chemicals, Bitrex 2.0 g/u
# [36] = ø of varieties and chemicals, Bitrex 5.0 g/u
# [37] = ø of varieties, chemical no, Bitrex 0.2 g/u
# [38] = ø of varieties, chemical no, Bitrex 0.5 g/u
# [39] = ø of varieties, chemical no, Bitrex 1.0 g/u
# [40] = ø of varieties, chemical no, Bitrex 2.0 g/u
# [41] = ø of varieties, chemical no, Bitrex 5.0 g/u
# [42] = ø of varieties, with MaximXL, Bitrex 0.2 g/u
# [43] = ø of varieties, with MaximXL, Bitrex 0.5 g/u
# [44] = ø of varieties, with MaximXL, Bitrex 1.0 g/u
# [45] = ø of varieties, with MaximXL, Bitrex 2.0 g/u
# [46] = ø of varieties, with MaximXL, Bitrex 5.0 g/u
# [47] = ø of varieties, with RedigoM, Bitrex 0.2 g/u
# [48] = ø of varieties, with RedigoM, Bitrex 0.5 g/u
# [49] = ø of varieties, with RedigoM, Bitrex 1.0 g/u
# [50] = ø of varieties, with RedigoM, Bitrex 2.0 g/u
# [51] = ø of varieties, with RedigoM, Bitrex 5.0 g/u
smiles,measurement,setting,value
"CC[N+](CC)(CC(=O)Nc1c(C)cccc1C)Cc1ccccc1.O=C([O-])c1ccccc1 [Bitrex, N-Benzyl-2-(2,6-dimethylanilino)-N, N-diethyl-2-oxoethan-1-aminium benzoate]","CT cold test germination rate, 7 days at 10° C. and 5 days at 25° C.",corn seeds; [2],91.5%
same,"CT cold test germination rate, 7 days at 10° C. and 5 days at 25° C.",corn seeds; [3],89.0%
same,"CT cold test germination rate, 7 days at 10° C. and 5 days at 25° C.",corn seeds; [4],95.5%
same,"CT cold test germination rate, 7 days at 10° C. and 5 days at 25° C.",corn seeds; [5],93.0%
same,"CT cold test germination rate, 7 days at 10° C. and 5 days at 25° C.",corn seeds; [6],96.5%
same,"CT cold test germination rate, 7 days at 10° C. and 5 days at 25° C.",corn seeds; [7],98.0%
same,"CT cold test germination rate, 7 days at 10° C. and 5 days at 25° C.",corn seeds; [8],98.0%
same,"CT cold test germination rate, 7 days at 10° C. and 5 days at 25° C.",corn seeds; [9],97.0%
same,"CT cold test germination rate, 7 days at 10° C. and 5 days at 25° C.",corn seeds; [10],99.0%
same,"CT cold test germination rate, 7 days at 10° C. and 5 days at 25° C.",corn seeds; [11],99.0%
same,"CT cold test germination rate, 7 days at 10° C. and 5 days at 25° C.",corn seeds; [12],97.5%
same,"CT cold test germination rate, 7 days at 10° C. and 5 days at 25° C.",corn seeds; [13],99.0%
same,"CT cold test germination rate, 7 days at 10° C. and 5 days at 25° C.",corn seeds; [14],99.0%
same,"CT cold test germination rate, 7 days at 10° C. and 5 days at 25° C.",corn seeds; [15],95.5%
same,"CT cold test germination rate, 7 days at 10° C. and 5 days at 25° C.",corn seeds; [16],96.5%
same,"CT cold test germination rate, 7 days at 10° C. and 5 days at 25° C.",corn seeds; [17],98.0%
same,"CT cold test germination rate, 7 days at 10° C. and 5 days at 25° C.",corn seeds; [18],97.5%
same,"CT cold test germination rate, 7 days at 10° C. and 5 days at 25° C.",corn seeds; [19],97.0%
same,"CT cold test germination rate, 7 days at 10° C. and 5 days at 25° C.",corn seeds; [20],90.5%
same,"CT cold test germination rate, 7 days at 10° C. and 5 days at 25° C.",corn seeds; [21],90.5%
same,"CT cold test germination rate, 7 days at 10° C. and 5 days at 25° C.",corn seeds; [22],100.0%
same,"CT cold test germination rate, 7 days at 10° C. and 5 days at 25° C.",corn seeds; [23],99.5%
same,"CT cold test germination rate, 7 days at 10° C. and 5 days at 25° C.",corn seeds; [24],98.0%
same,"CT cold test germination rate, 7 days at 10° C. and 5 days at 25° C.",corn seeds; [25],96.5%
same,"CT cold test germination rate, 7 days at 10° C. and 5 days at 25° C.",corn seeds; [26],99.0%
same,"CT cold test germination rate, 7 days at 10° C. and 5 days at 25° C.",corn seeds; [27],97.0%
same,"CT cold test germination rate, 7 days at 10° C. and 5 days at 25° C.",corn seeds; [28],96.5%
same,"CT cold test germination rate, 7 days at 10° C. and 5 days at 25° C.",corn seeds; [29],99.5%
same,"CT cold test germination rate, 7 days at 10° C. and 5 days at 25° C.",corn seeds; [30],98.5%
same,"CT cold test germination rate, 7 days at 10° C. and 5 days at 25° C.",corn seeds; [31],96.5%
same,ΔCT,corn seeds; [2],6.0%
same,ΔCT,corn seeds; [3],3.5%
same,ΔCT,corn seeds; [4],10.0%
same,ΔCT,corn seeds; [5],7.5%
same,ΔCT,corn seeds; [6],11.0%
same,ΔCT,corn seeds; [7],−2.0%
same,ΔCT,corn seeds; [8],−2.0%
same,ΔCT,corn seeds; [9],−3.0%
same,ΔCT,corn seeds; [10],−1.0%
same,ΔCT,corn seeds; [11],−1.0%
same,ΔCT,corn seeds; [12],0.5%
same,ΔCT,corn seeds; [13],2.0%
same,ΔCT,corn seeds; [14],2.0%
same,ΔCT,corn seeds; [15],−1.5%
same,ΔCT,corn seeds; [16],−0.5%
same,ΔCT,corn seeds; [17],5.5%
same,ΔCT,corn seeds; [18],5.0%
same,ΔCT,corn seeds; [19],4.5%
same,ΔCT,corn seeds; [20],−2.0%
same,ΔCT,corn seeds; [21],−2.0%
same,ΔCT,corn seeds; [22],1.0%
same,ΔCT,corn seeds; [23],0.5%
same,ΔCT,corn seeds; [24],−1.0%
same,ΔCT,corn seeds; [25],−2.5%
same,ΔCT,corn seeds; [26],0.0%
same,ΔCT,corn seeds; [27],−0.5%
same,ΔCT,corn seeds; [28],−1.0%
same,ΔCT,corn seeds; [29],2.0%
same,ΔCT,corn seeds; [30],1.0%
same,ΔCT,corn seeds; [31],−1.0%
same,ΔCT,corn seeds; [32],1.8%
same,ΔCT,corn seeds; [33],1.3%
same,ΔCT,corn seeds; [34],2.4%
same,ΔCT,corn seeds; [35],0.3%
same,ΔCT,corn seeds; [36],1.1%
same,ΔCT,corn seeds; [37],5.8%
same,ΔCT,corn seeds; [38],4.3%
same,ΔCT,corn seeds; [39],7.2%
same,ΔCT,corn seeds; [40],2.8%
same,ΔCT,corn seeds; [41],4.5%
same,ΔCT,corn seeds; [42],−0.5%
same,ΔCT,corn seeds; [43],−0.7%
same,ΔCT,corn seeds; [44],−2.0%
same,ΔCT,corn seeds; [45],−1.8%
same,ΔCT,corn seeds; [46],−0.5%
same,ΔCT,corn seeds; [47],0.0%
same,ΔCT,corn seeds; [48],0.5%
same,ΔCT,corn seeds; [49],2.0%
same,ΔCT,corn seeds; [50],−0.2%
same,ΔCT,corn seeds; [51],−0.7%
same,"CT cold test germination rate, 7 days at 10° C. and 5 days at 25° C.",corn seeds; [32],97.0%
same,"CT cold test germination rate, 7 days at 10° C. and 5 days at 25° C.",corn seeds; [33],96.6%
same,"CT cold test germination rate, 7 days at 10° C. and 5 days at 25° C.",corn seeds; [34],97.7%
same,"CT cold test germination rate, 7 days at 10° C. and 5 days at 25° C.",corn seeds; [35],95.5%
same,"CT cold test germination rate, 7 days at 10° C. and 5 days at 25° C.",corn seeds; [36],96.3%
same,"CT cold test germination rate, 7 days at 10° C. and 5 days at 25° C.",corn seeds; [37],94.8%
same,"CT cold test germination rate, 7 days at 10° C. and 5 days at 25° C.",corn seeds; [38],93.3%
same,"CT cold test germination rate, 7 days at 10° C. and 5 days at 25° C.",corn seeds; [39],96.3%
same,"CT cold test germination rate, 7 days at 10° C. and 5 days at 25° C.",corn seeds; [40],91.8%
same,"CT cold test germination rate, 7 days at 10° C. and 5 days at 25° C.",corn seeds; [41],93.5%
same,"CT cold test germination rate, 7 days at 10° C. and 5 days at 25° C.",corn seeds; [42],99.0%
same,"CT cold test germination rate, 7 days at 10° C. and 5 days at 25° C.",corn seeds; [43],98.8%
same,"CT cold test germination rate, 7 days at 10° C. and 5 days at 25° C.",corn seeds; [44],97.5%
same,"CT cold test germination rate, 7 days at 10° C. and 5 days at 25° C.",corn seeds; [45],97.8%
same,"CT cold test germination rate, 7 days at 10° C. and 5 days at 25° C.",corn seeds; [46],99.0%
same,"CT cold test germination rate, 7 days at 10° C. and 5 days at 25° C.",corn seeds; [47],97.3%
same,"CT cold test germination rate, 7 days at 10° C. and 5 days at 25° C.",corn seeds; [48],97.8%
same,"CT cold test germination rate, 7 days at 10° C. and 5 days at 25° C.",corn seeds; [49],99.3%
same,"CT cold test germination rate, 7 days at 10° C. and 5 days at 25° C.",corn seeds; [50],97.0%
same,"CT cold test germination rate, 7 days at 10° C. and 5 days at 25° C.",corn seeds; [51],96.5%
same,"effect on development of biomass, seed damages and seedling damages",[1],positive effect
